The values that follow come from patent publication US7601713B2, “Kinase inhibitors and their uses” (Rigel Pharmaceuticals, Inc., priority 2005, dated 2009).

Structures are written as SMILES.

This test has as its target T1, Axl kinase (Homo sapiens, UniProt P30530).
T1 construct: endogenous in cells; host or cells: HeLa cells
T1 sequence (P30530 26-894): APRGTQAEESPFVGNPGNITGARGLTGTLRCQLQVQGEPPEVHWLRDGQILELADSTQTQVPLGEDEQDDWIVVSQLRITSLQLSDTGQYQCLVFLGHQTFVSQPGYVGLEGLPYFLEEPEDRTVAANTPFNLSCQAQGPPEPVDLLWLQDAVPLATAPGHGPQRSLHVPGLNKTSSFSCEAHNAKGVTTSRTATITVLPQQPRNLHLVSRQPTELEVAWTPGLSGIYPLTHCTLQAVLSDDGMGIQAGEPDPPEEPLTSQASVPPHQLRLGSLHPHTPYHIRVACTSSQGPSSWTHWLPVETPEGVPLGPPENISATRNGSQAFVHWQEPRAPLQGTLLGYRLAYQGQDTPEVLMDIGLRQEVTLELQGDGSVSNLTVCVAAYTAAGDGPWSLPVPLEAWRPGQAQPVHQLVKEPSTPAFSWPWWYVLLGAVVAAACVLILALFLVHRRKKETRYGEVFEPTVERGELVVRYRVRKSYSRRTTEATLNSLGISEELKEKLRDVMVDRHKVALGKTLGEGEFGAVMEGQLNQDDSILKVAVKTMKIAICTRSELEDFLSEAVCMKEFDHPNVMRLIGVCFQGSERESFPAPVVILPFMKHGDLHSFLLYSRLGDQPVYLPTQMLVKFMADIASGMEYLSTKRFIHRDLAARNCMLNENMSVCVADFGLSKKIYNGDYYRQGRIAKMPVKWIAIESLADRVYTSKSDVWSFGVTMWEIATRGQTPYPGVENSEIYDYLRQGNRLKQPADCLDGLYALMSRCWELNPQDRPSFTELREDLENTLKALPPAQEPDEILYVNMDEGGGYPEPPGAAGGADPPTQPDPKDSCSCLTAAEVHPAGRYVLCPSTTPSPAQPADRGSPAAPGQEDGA
Description: Phospho-Akt in-cell Western assay (Axl antibody cross-linking, Hela cells). Conditions: phospho-Akt readout, read-out: IC50, inhibition of Axl kinase. The class given is cell-based. The procedure: The compounds of the invention were tested in the following assay for their ability to inhibit Axl activity.
Phospho-Akt in-Cell Western Assay
Starvation medium: For Axl stimulation: 0.5% FCS (fetal calf serum) in DMEM, plus Axl/Fc (extracellular domain of AXL fused to immunoglobulin Fc region) (R&D, 154-AL) 500 ng/mL.
Axl antibody cross-linking: • 1st: Mouse anti-Axl (R&D, MAB 154). • 2nd: Biotin-SP-conjugated AffiniPure goat anti-mouse IgG (H+L) (Jackson ImmunoResearch #115-065-003).
Primary antibody: Rabbit anti-human Phospho-Akt antibody (Cell Signaling 9271): 1×250 diluted in blocking buffer.
Secondary antibody: HRP (horse radish peroxidase)-conjugated Goat anti-Rabbit secondary, stock solution: Jackson lmmunoResearch (Goat anti-Rabbit HRP, #111-035-144) 1:1 diluted in glycerol, store at −20° C. The working solution: 1×2000 dilution of stock in blocking buffer.
A 96 well TC (tissue culture treated) plate was coated with 10 μg/mL poly-L-Lysine at 37° C. for 30 min, washed twice with PBS, and air-dried for 5 minutes before cells were added. Hela cells were seeded at 10,000 cells/well and the cells were starved in 100 μL starvation medium containing Axl/Fc for 24 hrs.
The cells were pre-treated with test compounds by adding 100 μL of 2× test compound to the starvation medium on the cells. The cells were incubated at 37° C. for 1 hr before stimulation.
The cells were stimulated by Axl-antibody cross-linking as follows: A 5× 1st/2nd Axl antibody mixture was made (37.5 μg/mL 1st/100 μg/mL 2nd) in starvation medium and nutated at 4° C. with thorough mixing for 1-2 hours for clustering. The resulting mix was warmed to 37° C. 50 μL of 5× Axl 1st/2nd of antibody cluster was added to the cells and the cells were incubated at 37° C. for 5 min.
After 5 minutes stimulation, the plate was flicked to remove medium and the plate was tapped onto paper towels. Formaldehyde (4.0% in PBS, 100 μL) was added to fix the cells and the cells were incubated at ambient temperature for 20 min without shaking.
The cells were washed with a plate washer buffer to remove the formaldehyde solution. The plate was flicked to remove excess wash buffer and tapped onto paper towels. Quenching buffer (100 μL) was added to each well and the cells were incubated at ambient temperature for 20 minutes without shaking.
The cells were washed with a plate washer buffer to remove the quenching buffer. Blocking buffer (100 μL) was added and the cells were incubated at ambient temperature for at least an hour with gentle shaking.
The cells were washed with a plate washer buffer and diluted primary antibody (50 μL) was added to each well (blocking buffer was added to the negative control wells instead). The plates were incubated overnight at 4° C. with gentle shaking.
The wash buffer was removed, diluted secondary antibody (100 μL) was added, and the cells were incubated at ambient temperature for 1 hour with gentle shaking. During the incubation, the chemiluminescent reagent was brought to ambient temperature.
The secondary antibody was removed by washing the cells 1× with wash buffer, 1× with PBS by plate washer. The PBS was removed from the plate and the chemiluminescent reagent (80 μL: 40 μL A and 40 μL B) was added to each well at ambient temperature.
The resulting chemiluminescence was read with a Luminomitor within 10 minutes to minimize changes in signal intensity. After reading the chemiluminescence, the cells were washed 1× with wash buffer and 1× with PBS by plate washer. The plate was tapped onto paper towels to remove excess liquid from wells and air-dried at ambient temperature for 5 minutes.
Crystal Violet working solution (60 μL) was added to each well and the cells were incubated at ambient temperature for 30 min. The crystal violet solution was removed, and the wells were rinsed with PBS, then washed 3× with PBS (200 μL) for 5 minutes each.
5% SDS solution (70 μL) was added to each well and the cells were incubated on a shaker for 30 min at ambient temperature. […]
Consider `Cc1cc(Nc2nc(NC3C4C=CC(C4)C3C(N)=O)c3ccccc3n2)ccc1OCCN1CCCC1` (racemic) [Compound 215, Racemic-(2-exo,3-exo)-N4-(3-aminocarbonylbicyclo [2.2.1]hept-5-en-2-yl)-N2-(3-methyl-4-(2-(1-pyrrolidinyl)ethoxy)phenyl)-2,4-quinazoline-diamine], for which the IC50 was less than 5 µM.
Turning to `NC(=O)C1C2C=CC(C2)C1Nc1nc(Nc2ccc(OCCN3CCCC3)c(Cl)c2)nc2ccccc12` (racemic) [Compound 216, Racemic-(2-exo,3-exo)-N4-(3-aminocarbonylbicyclo [2.2.1]hept-5-en-2-yl)-N2-(3-Chloro-4-(2-(1-pyrrolidinyl)ethoxy)phenyl)-2,4-quinazoline-diamine], the IC50 was less than 5 µM.
Consider `CCN(CC)C(=O)c1cccc(Nc2nc(NC3C4C=CC(C4)C3C(N)=O)c3cc[nH]c3n2)c1` (racemic) [Compound 222, Racemic-(2-exo,3-exo)-N4-(3-aminocarbonylbicyclo [2.2.1]hept-5-en-2-yl)-N2-(3-N,N-diethyl-aminocarbonyl-phenyl)-1H-pyrrolo[2,3-d]pyrimidine-2,4-diamine], for which the IC50 is less than 5 µM.
Consider `CONC(=O)Cc1cccc(Nc2nc(NC3C4C=CC(C4)C3C(N)=O)c3cc[nH]c3n2)c1` (racemic) [Compound 229, Racemic-(2-exo,3-exo)-N4-(3-aminocarbonylbicyclo [2.2.1]hept-5-en-2-yl)-N2-[3-(N-methoxy)-aminocarbonyl-methylphenyl]-1H-pyrrolo[2,3-d]pyrimidine-2,4-diamine], for which the IC50 is less than 10 µM.
Then `CCOC(=O)C1C2C=CC(C2)C1Nc1nc(Nc2cccc(OC)c2)nc2[nH]ccc12` (racemic) [Compound 232, Racemic-(2-exo,3-exo)-N4-(3-ethoxycarbonylbicyclo [2.2.1]hept-5-en-2-yl)-N2-(3-methoxyphenyl)-1H-pyrrolo[2,3-d]pyrimidine-2,4-diamine], with less than 10 µM; and `NC(=O)C1C2C=CC(C2)C1Nc1nc(Nc2ccc(OCCN3CCCC3)cc2)nc2[nH]cnc12` (racemic) [Compound 234], with less than 5 µM.
With `CNC(=O)[C@H]1C[C@H]2CC(C2(C)C)[C@@]1(C)Nc1nc(Nc2ccc(OCCN3CCCC3)cc2)nc2ccsc12` (stereo in doubt) [Compound 197, (1S,2R,3S,5R)-N,2,6,6-tetramethyl-2-(2-(4-(2-(pyrrolidin-1-yl)ethoxy)phenylamino)thieno[3,2-d]pyrimidin-4-ylamino)bicyclo[3.1.1] heptane-3-carboxamide], the IC50 was less than 5 µM.
`CNC(=O)[C@H]1CC2CC(C2(C)C)[C@@]1(C)Nc1nc(Nc2ccc(N3CCN(C4CCCCC4)CC3)cc2)nc2ccsc12` (stereo in doubt) [Compound 198, (1S,2R,3S,SR)-2-(2-(4-(4-cyclohexylpiperazin-1-yl)phenylamino)thieno [3,2-d]pyrimidin-4-ylamino)-N,2,6,6-tetramethylbicyclo[3.1.1] heptane-3-carboxamide]: the IC50 was less than 5 µM.
In the case of `NC(=O)C1C2C=CC(C2)C1Nc1nc(Nc2ccc3c(c2)OCCCO3)nc2ccsc12` (stereo not shown) [Compound 182, 3-(2-(3,4-dihydro-2H-benzo[b][1,4]dioxepin-7-ylamino)thieno[3,2-d]pyrimidin-4-ylamino)bicyclo[2.2.1] hept-5-ene-2-carboxamide], the IC50 was less than 5 µM.
As for `NC(=O)C1C2C=CC(C2)C1Nc1nc(Nc2ccc(OCCN3CCCC3)cc2)nc2c1CCC2` (stereo not shown) [Compound 185, 3-(2-(4-(2-(pyrrolidin-1-yl)ethoxy)phenylamino)-6,7-dihydro-5H-cyclopenta[d]pyrimidin-4-ylamino)bicyclo[2.2.1] hept-5-ene-2-carboxamide], the figure is less than 5 µM.
Turning to `NC(=O)C1C2C=CC(C2)C1Nc1nc2c(c(Nc3ccc(OCCN4CCCC4)cc3)n1)CN(Cc1ccccc1)CC2` (stereo not shown) [Compound 186, 3-(6-benzyl-4-(4-(2-(pyrrolidin-1-yl)ethoxy)phenylamino)-5,6,7,8-tetrahydropyrido[4,3-d]pyrimidin-2-ylamino)bicyclo[2.2.1] hept-5-ene-2-carboxamide], the IC50 was less than 5 µM.
For the compound `NC(=O)[C@H]1C2C=CC(C2)[C@H]1Nc1nc(Nc2ccc(OCCN3CCCC3)cc2)nc2c1cnn2Cc1ccccc1` (stereo partly drawn) [Compound 189, (2S,3R)-3-(1-benzyl-6-(4-(2-(pyrrolidin-1-yl)ethoxy)phenylamino)-1H-pyrazolo[3,4-d]pyrimidin-4-ylamino)bicyclo[2.2.1] hept-5-ene-2-carboxamide], the IC50 was more than 10 µM.
Consider `CCOC(=O)N1CCN(c2ccc(Nc3nc(N[C@@H]4C5C=CC(C5)[C@@H]4C(N)=O)c4sccc4n3)cc2F)CC1` (stereo partly drawn) [Compound 208, ethyl 4-(4-(4-((2R,35)-3-carbamoylbicyclo[2.2. 1]hept-5-en-2-ylamino)thieno[3,2-d]pyrimidin-2-ylamino)-2-fluorophenyl)piperazine-1-carboxylate], for which the concentration for half-maximal inhibition (IC50) is more than 10 µM.
On to `CC1CCN(C2CCN(c3ccc(Nc4nc(N[C@@H]5C6C=CC(C6)[C@@H]5C(N)=O)c5sc(C(F)(F)F)cc5n4)cc3F)CC2)CC1` (stereo partly drawn) [Compound 209, (2S,3R)-3-(2-(3-fluoro-4-(4-methyl-1,4′-bipiperidin-1′-yl)phenylamino)-6-(trifluoromethyl)thieno [3,2-d]pyrimidin-4 ylamino)bicyclo[2.2.1] hept-5-ene-2-carboxamide], for which the IC50 was less than 5 µM.
With `NC(=O)[C@H]1C2C=CC(C2)[C@H]1Nc1nc(Nc2ccc(OCCN3CCCC3)cc2)nc2cc(C(F)(F)F)sc12` (stereo partly drawn) [Compound 210, (2S,3R)-3-(2-(4-(2-(pyrrolidin-1-yl)ethoxy)phenylamino)-6-(trifluoromethyl)thieno [3,2-d]pyrimidin-4-ylamino)bicyclo[2.2.1] hept-5-ene-2-carboxamide], the IC50 was more than 10 µM.
Turning to `NC(=O)[C@H]1C2C=CC(C2)[C@H]1Nc1nc(Nc2ccc(C(=O)N3CCN(C4CCCCC4)CC3)cc2)nc2cc(C(F)(F)F)sc12` (stereo partly drawn) [Compound 211, (2S,3R)-3-(2-(4-(4-cyclohexylpiperazine-1-carbonyl)phenylamino)-6-(trifluoromethyl)thieno [3,2-d]pyrimidin-4 ylamino)bicyclo[2.2.1] hept-5-ene-2-carboxamide], the IC50 was less than 10 µM.
